Experimental data from patent publication US20060058286A1, “Methods of treating HIV infection” (priority 2004, published 2006).

Experiments:
HIV-1 NL4-3 [1] = assay: Two-drug combination study with Compound 1 (combination indices); type: cell-based; settings: for Combination Indices at 50% HIV Inhibition (Confidence Interval) / Combination Indices at 75% HIV Inhibition (Confidence Interval) / Combination Indices at 90% HIV Inhibition (Confidence Interval): 95% CI in parentheses; for Overall Result: overall antiviral effect of the two-drug combination with Compound 1, all ratios and effective levels
Procedure: (§1) Virus and cell lines. The T-cell line, MT-2 was obtained through the AIDS Research and Reference Reagent Program, NIAID and was contributed by Dr. D. Richman. The cell line was cultured in RPMI 1640 medium supplemented with 10% fetal bovine serum, 2 mM L-glutamine and sub-cultured twice a week. The NL4-3 strain of HIV-1 was obtained from the AIDS Research and Reference Reagent Program. Both virus stocks were amplified and titered in MT-2 cells using a virus infectivity assay.
(§2) Drug Susceptibility and Cytotoxicity Assays. For drug susceptibility assays, MT-2 cells were infected with HIV-1 NL4-3 at an MOI of 0.001, and seeded into 96-well microtiter plates (2.5×10^5 cells/ml) containing serial dilutions of test compounds. […] Each drug ratio consisted of an array of 3-fold serial dilutions, and was performed in quadruplicate. The plates were incubated at 37° C./5% CO2. The MT-2 cells infected with HIV-1 NL4-3 were incubated for 5 days. On day-five post-infection, 20 μl from each well was harvested and quantitated by a reverse transcriptase (RT) assay or an MTS assay. Cytotoxicity assays were performed using uninfected cells, exposed to the same drug combinations, and incubated for five days. Cell viability was determined by an XTT assay. The CC50 values were calculated by using the exponential form of the median effect equation as mentioned below for calculation of EC50.
Analysis of Drug Combination Effects. For determination of CI values, drugs were diluted in a fixed ratio and multiple ratios were analyzed. The drug serial dilutions spanned a range of concentrations near the EC50 value of each compound, so that equivalent antiviral activities could be compared. Concentration-response curves were estimated for each individual drug and every combination using the median-effect equation. The equation was fit using a nonlinear regression routine (Proc Nlin) in PC SAS version 8.01 (SAS Institute Inc., SAS Version 8.01, Cary, N.C.: SAS Institute Inc., 1990).
(§3) In this equation, Fa stands for “fraction affected,” and represents the fraction of the viral load that has been inactivated.
To assess antiviral effects of different drug combination treatments, combination indices (CIs) were calculated according to Chou and Rideout. The combination index was computed as CI=[D]1/[Dm]1+[D]2/[Dm]2
In this equation [Dm]1 and [Dm]2 are the concentrations of drugs that would individually produce a specific level of effect, while [D]1 and [D]2 are the concentrations of drugs in combination that would produce the same level of effect.
Theoretically, additivity is implied if the CI is equal to one, synergy if the CI is less than one, and antagonism if the CI is greater than one. […] At best, we can construct a range that contains the likely values for the CI, given the noise in the data. In this report, these ranges are reported in parentheses next to each point estimate of the CI. […] If the range fell entirely above 1.0, we would infer antagonistic behavior. If the range were to include 1.0, we would infer additivity.

HIV-1 NL4-3 [2] = assay: microbe, parasite or virus in culture; settings: Human immunodeficiency virus 1, NL43, MT2, 120 h
Procedure: as §1, §2, §3
In carrying out the combination experiments below, the EC50 for Compound 1 and each comparator compound was determined during the course of each study, and used in the subsequent data analysis.

[3] = combination with Compound 1, EC50 ratio 1:1 (Compound 1:comparator)
[4] = combination with Compound 1, EC50 ratio 1:2.5 (Compound 1:comparator)
[5] = combination with Compound 1, EC50 ratio 2.5:1 (Compound 1:comparator)

SMILES | Combination Indices at 50% HIV Inhibition (Confidence Interval) (HIV-1 NL4-3 [1]; [3]) | Combination Indices at 75% HIV Inhibition (Confidence Interval) (HIV-1 NL4-3 [1]; [3]) | Combination Indices at 90% HIV Inhibition (Confidence Interval) (HIV-1 NL4-3 [1]; [3]) | Combination Indices at 50% HIV Inhibition (Confidence Interval) (HIV-1 NL4-3 [1]; [4]) | Combination Indices at 75% HIV Inhibition (Confidence Interval) (HIV-1 NL4-3 [1]; [4]) | Combination Indices at 90% HIV Inhibition (Confidence Interval) (HIV-1 NL4-3 [1]; [4]) | Combination Indices at 50% HIV Inhibition (Confidence Interval) (HIV-1 NL4-3 [1]; [5]) | Combination Indices at 75% HIV Inhibition (Confidence Interval) (HIV-1 NL4-3 [1]; [5]) | Combination Indices at 90% HIV Inhibition (Confidence Interval) (HIV-1 NL4-3 [1]; [5]) | Overall Result (HIV-1 NL4-3 [1]) | Overall Result (HIV-1 NL4-3 [1]; listed as emtricitibine) | EC50 (HIV-1 NL4-3 [2]) | Overall Result (HIV-1 NL4-3 [1]; listed as lopinavir) | combination effect at the 13:1 and 82.5:1 molar ratios (HIV-1 NL4-3 [1]; combination with Compound 1) | combination effect at the 33:1 molar ratio (HIV-1 NL4-3 [1]; combination with Compound 1)
Nc1nc(=O)n([C@@H]2CS[C@H](CO)O2)cc1F [Emtricitabine, emtricitabine] | 0.52 (0.44, 0.59) | 0.40 (0.32, 0.48) | 0.32 (0.22, 0.41) | 0.74 (0.63, 0.84) | 0.64 (0.52, 0.77) | 0.57 (0.39, 0.75) | 0.49 (0.42, 0.56) | 0.34 (0.28, 0.41) | 0.25 (0.17, 0.33) | Synergistic | synergistic | 110 nM |  |  | 
Nc1ccn([C@@H]2CS[C@H](CO)O2)c(=O)n1 [Lamivudine, lamivudine] | 0.69 (0.58, 0.81) | 0.49 (0.38, 0.61) | 0.37 (0.25, 0.50) | 0.58 (0.52, 0.65) | 0.60 (0.51, 0.69) | 0.64 (0.49, 0.80) | 0.93 (0.65, 1.20) | 0.78 (0.46, 1.10) | 0.70 (0.24, 1.16) |  |  | 190 nM |  |  | 
Cc1cccc(C)c1OCC(=O)N[C@@H](Cc1ccccc1)[C@@H](O)C[C@H](Cc1ccccc1)NC(=O)[C@H](C(C)C)N1CCCNC1=O [Lopinavir, lopinavir] | 0.16 (0.11, 0.22) | 0.16 (0.08, 0.24) | 0.16 (0.04, 0.28) |  | 0.57 (0.46 0.68) | 0.32 (0.22, 0.42) | 1.60 (1.28, 1.92) | 0.78 (0.56, 1.00) | 0.38 (0.22, 0.55) | Additive- |  | 14 nM | additive to synergistic |  | 
CON(Cc1ccc(F)cc1)C(=O)/C=C(\O)C(=O)O [Compound 1, (Z)-3-[(4-Fluoro-benzyl)-methoxy-carbamoyl]-2-hydroxy-acrylic acid] |  |  |  |  |  |  |  |  |  | synergistic or additive-synergistic |  | 155 nM |  |  | 
COc1ncc(OC)c2c(C(=O)C(=O)N3CCN(C(=O)c4ccccc4)CC3)c[nH]c12 [Compound 3] | 0.92 (0.77, 1.06) | 0.90 (0.70, 1.10) | 0.89 (0.58, 1.21) | 0.71 (0.60, 0.82) | 0.66 (0.51, 0.80) | 0.61 (0.40, 0.82) | 0.41 (0.36, 0.47) | 0.41 (0.33, 0.48) | 0.40 (0.28, 0.52) | synergistic to additive |  | 1 nM |  | moderate synergy | additivity
